According to patent US10005768B2, “Carboxamide derivatives and use thereof” (Purdue Pharma L.P., priority 2013, dated 2018):

Target: human Nav1.7 (Homo sapiens (Human), UniProt Q15858)
Assay: FLIPR membrane potential dye assay (alternative fluorescence assay)
Assay type: cell-based
Conditions: recombinant Nav1.7/HEK293 cells
Method: In vitro assays were performed in a recombinant cell line expressing cDNA encoding the alpha subunit (Nav1.7, SCN9a, PN1, NE) of human Nav1.7 (Accession No. NM_002977). The cell line was provided by investigators at Yale University (Cummins et al, J. Neurosci. 18(23): 9607-9619 (1998)). For dominant selection of the Nav1.7-expressing clones, the expression plasmid co-expressed the neomycin resistance gene. The cell line was constructed in the human embryonic kidney cell line, HEK293, under the influence of the CMV […] promoter, and stable clones were selected using limiting dilution cloning and antibiotic selection using the neomycin analogue, G418. Recombinant beta and gamma subunits were not introduced into this cell line. Additional cell lines expressing recombinant Nav1.7 cloned from other species can also be used, alone or in combination with various beta subunits, gamma subunits or chaperones.
A fluorescence indicator that can be used in alternative fluorescence assays is the blue version membrane potential dye (MDS, Molecular Devices, Sunnyvale, Calif.), a dye that detects changes in molecules following a change in membrane potential. An increase in fluorescence is expected if agonist stimulation provokes a change in membrane potential. Cells expressing Nav1.7 or other sodium channels are incubated with the membrane potential dye 30-60 minutes before the fluorescence assay. In the case of the KCl pre-stimulation version of the assay, the dye and all other components are washed out immediately before the assay, and the dye is then replaced. In the version lacking KCl pre-stimulation, the dye remains on the cells and is not washed out or replaced. The dye is stored in the dark as a lyophilized powder, and then an aliquot dissolved in assay buffer to form a 20×-concentrated stock solution that can be used for several weeks.
In the fluorescence assays, two agonists were used in combination, namely 1) veratridine; and 2) the venom from the yellow scorpion, Leiurus quinquestriatus hebraeus. Veratridine is an alkaloid small molecule that facilitates the capture of channel openings by inhibiting inactivation, and the scorpion venom is a natural preparation that includes peptide toxins selective for different subsets of voltage-gated sodium channels. These scorpion toxins inhibit the fast inactivation of their cognate target channels. Stock solutions of the agonists were prepared to 40 mM in DMSO (veratridine) and 1 mg/mL in dH2O (scorpion venom), and then diluted to make a 4× or 2× stock (depending on the particular assay) in assay buffer, the final concentration being 100 μM (veratridine) and 10 μg/mL (scorpion venom). Both of the agonists were purchased from Sigma Aldrich, St. Louis, Mo.
Test compounds were dissolved in DMSO to yield 10 mM stock solutions. The stock solutions were further diluted using DMSO in 1:3 serial dilution steps with 10 points (10,000 μM, […], 370 μM, 123 μM, 41 μM, 14 μM, 4.6 μM, 1.5 μM and 0.5 μM). The stock solutions were further diluted in assay buffer (1:125) as 4× stock serial dilutions with a DMSO concentration of 0.8% (final [DMSO], in the assay, from the compounds component=0.2%), so that the compounds' final concentrations in the assay were 20 μM, 6.7 μM, 2.2 μM, 0.74 μM, 0.25 μM and 0.08 μM, 0.03 μM, 0.01 μM, 0.003 μM and 0.001 μM. If a particular test article appeared to be especially potent, then the concentration curve was adjusted, e.g., to 10-fold lower concentrations, in order to perform the dose-response in a more relevant concentration range. Compound dilutions were added during the dye-loading and pre-stimulation step, and then again during the fluorescence assay, early in the kinetic read.
The data were analyzed according to methods known to those skilled in the art or using the GraphPad® Prism Program, version 4.0 or higher (available from GraphPad Software, San Diego, Calif.) to determine the IC50 value for the test article. […]

Sequence of human Nav1.7 (Q15858 other isoform, or with tags, fused parts or gaps): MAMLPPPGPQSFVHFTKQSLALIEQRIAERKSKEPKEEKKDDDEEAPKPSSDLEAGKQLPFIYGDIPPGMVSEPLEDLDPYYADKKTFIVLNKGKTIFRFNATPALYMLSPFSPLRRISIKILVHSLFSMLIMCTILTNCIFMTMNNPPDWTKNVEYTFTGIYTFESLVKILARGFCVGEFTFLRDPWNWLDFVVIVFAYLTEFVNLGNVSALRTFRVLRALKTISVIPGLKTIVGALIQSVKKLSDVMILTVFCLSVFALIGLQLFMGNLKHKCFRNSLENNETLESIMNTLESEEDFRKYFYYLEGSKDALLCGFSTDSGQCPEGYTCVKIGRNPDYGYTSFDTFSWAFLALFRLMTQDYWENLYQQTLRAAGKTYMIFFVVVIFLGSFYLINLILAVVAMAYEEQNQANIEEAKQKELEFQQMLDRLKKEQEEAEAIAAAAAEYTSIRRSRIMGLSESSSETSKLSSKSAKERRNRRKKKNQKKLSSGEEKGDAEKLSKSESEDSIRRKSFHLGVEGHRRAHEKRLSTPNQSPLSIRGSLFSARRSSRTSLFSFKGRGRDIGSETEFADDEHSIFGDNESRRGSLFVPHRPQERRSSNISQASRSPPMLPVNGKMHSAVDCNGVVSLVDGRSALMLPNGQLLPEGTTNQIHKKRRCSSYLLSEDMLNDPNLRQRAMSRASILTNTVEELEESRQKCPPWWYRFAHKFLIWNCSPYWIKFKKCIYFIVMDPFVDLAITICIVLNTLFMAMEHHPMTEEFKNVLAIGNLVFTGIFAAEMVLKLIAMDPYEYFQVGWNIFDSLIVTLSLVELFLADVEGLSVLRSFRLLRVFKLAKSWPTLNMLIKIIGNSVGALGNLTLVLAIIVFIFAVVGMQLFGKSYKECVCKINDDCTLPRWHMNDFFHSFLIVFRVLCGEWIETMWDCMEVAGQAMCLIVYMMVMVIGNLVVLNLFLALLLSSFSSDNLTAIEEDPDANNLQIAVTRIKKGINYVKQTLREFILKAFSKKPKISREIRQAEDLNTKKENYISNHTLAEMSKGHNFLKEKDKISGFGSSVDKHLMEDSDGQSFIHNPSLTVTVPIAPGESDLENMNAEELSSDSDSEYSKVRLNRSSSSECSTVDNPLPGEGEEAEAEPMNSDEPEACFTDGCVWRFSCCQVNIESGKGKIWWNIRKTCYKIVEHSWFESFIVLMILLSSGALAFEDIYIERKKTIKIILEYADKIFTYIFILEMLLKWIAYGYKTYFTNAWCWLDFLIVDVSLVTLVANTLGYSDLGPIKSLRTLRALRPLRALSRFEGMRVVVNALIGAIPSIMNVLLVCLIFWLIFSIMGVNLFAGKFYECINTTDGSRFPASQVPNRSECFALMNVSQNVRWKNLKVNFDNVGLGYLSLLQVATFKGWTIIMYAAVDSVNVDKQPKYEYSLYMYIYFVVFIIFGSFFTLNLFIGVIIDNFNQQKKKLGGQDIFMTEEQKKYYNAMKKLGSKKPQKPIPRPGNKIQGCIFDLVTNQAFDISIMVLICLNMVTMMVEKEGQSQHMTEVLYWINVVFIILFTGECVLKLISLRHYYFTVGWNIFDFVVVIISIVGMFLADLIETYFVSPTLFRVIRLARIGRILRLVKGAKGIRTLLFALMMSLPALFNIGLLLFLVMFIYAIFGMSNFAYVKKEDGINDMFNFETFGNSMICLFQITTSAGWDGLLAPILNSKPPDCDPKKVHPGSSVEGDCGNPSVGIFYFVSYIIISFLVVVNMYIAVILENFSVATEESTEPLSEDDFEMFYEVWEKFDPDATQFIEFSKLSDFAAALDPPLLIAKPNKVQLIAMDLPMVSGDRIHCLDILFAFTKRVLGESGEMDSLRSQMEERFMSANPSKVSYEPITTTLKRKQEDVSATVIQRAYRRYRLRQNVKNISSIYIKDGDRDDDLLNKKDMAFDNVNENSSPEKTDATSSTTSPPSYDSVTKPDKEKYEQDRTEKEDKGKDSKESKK

Row | Structure (SMILES) | IC50 [µM]
1 | CCN(CC)C(=O)c1cc(C(F)(F)F)ccc1Oc1ccc(-c2cccc([C@H](O)CO)n2)cc1 [compound 168, (S)-2-(4-(6-(1,2-dihydroxyethyl)pyridin-2-yl)phenoxy)-N,N-diethyl-5-(trifluoromethyl)benzamide] | 0.519 ± 0.083
2 | CCN(C)C(=O)c1cc(C(F)(F)F)ccc1Oc1ccc(-c2cccc([C@H](O)CO)n2)cc1 [compound 169, (S)-2-(4-(6-(1,2-dihydroxy-ethyl)pyridin-2-yl)phenoxy)-N-ethyl-N-methyl-5-(trifluoro-methyl)benzamide] | 1.55 ± 0.286
3 | O=C(c1cc(C(F)(F)F)ccc1Oc1ccc(-c2cccc([C@H](O)CO)n2)cc1)N1CC[C@H](O)C1 [compound 170, (2-(4-(6-((S)-1,2-dihydroxyethyl)pyridin-2-yl)phenoxy)-5-(trifluoromethyl)phenyl)((S)-3-hydroxypyrrolidin-1-yl)methanone] | > 20
4 | CCN(CCO)C(=O)c1cc(C(F)(F)F)ccc1Oc1ccc(-c2cccc([C@H](O)CO)n2)cc1 [compound 171, (S)-2-(4-(6-(1,2-dihydroxyethyl)pyridin-2-yl)phenoxy)-N-ethyl-N-(2-hydroxyethyl)-5-(trifluoro-methyl)benzamide] | > 20
5 | CCN(CCN(C)C)C(=O)c1cc(C(F)(F)F)ccc1Oc1ccc(-c2cccc([C@H](O)CO)n2)cc1 [compound 172, (S)-2-(4-(6-(1,2-dihydroxyethyl)pyridin-2-yl)phenoxy)-N-(2-(dimethyl-amino)ethyl)-N-ethyl-5-(trifluoromethyl)benzamide] | 7.97 ± 1.19
6 | NC(=O)C1CCCN(C(=O)c2cc(C(F)(F)F)ccc2Oc2ccc(-c3cccc([C@H](O)CO)n3)cc2)C1 (stereo partly drawn) [compound 173, 1-(2-(4-(6-((S)-1,2-dihydroxyethyl)pyridin-2-yl)phenoxy)-5-(trifluoromethyl)benzoyl)piperidine-3-carboxamide] | > 20
7 | O=C(Nc1nncs1)c1cc(C(F)(F)F)ccc1Oc1ccc(-c2cccc([C@H](O)CO)n2)cc1 [compound 174, (S)-2-(4-(6-(1,2-dihydroxyethyl)pyridin-2-yl)phenoxy)-N-(1,3,4-thiadiazol-2-yl)-5-(trifluoromethyl)-benzamide] | 3.61 ± 0.229
8 | O=C(Nc1nccs1)c1cc(C(F)(F)F)ccc1Oc1ccc(-c2cccc([C@H](O)CO)n2)cc1 [compound 175, (S)-2-(4-(6-(1,2-dihydroxyethyl)pyridin-2-yl)phenoxy)-N-(thiazol-2-yl)-5-(trifluoromethyl)benzamide] | 1.31 ± 0.054
9 | O=C(NCc1nnn[nH]1)c1cc(C(F)(F)F)ccc1Oc1ccc(-c2cccc([C@H](O)CO)n2)cc1 [compound 176, (S)-N-((1H-tetrazol-5-yl)methyl)-2-(4-(6-(1,2-dihydroxyethyl)-pyridin-2-yl)phenoxy)-5-(trifluoromethyl)benzamide] | > 20
